Data from paper PMC5723705, “Identification of an antibody‐based immunoassay for measuring direct target binding of RIPK1 inhibitors in cells and tissues” (Pharmacology Research & Perspectives, 2017).
pIC50: −log10 of the molar value.

Legend:
[1] = system: RIPK1 (Receptor-interacting serine/threonine-protein kinase 1); experiment: TEAR1 target engagement immunoassay in monkey whole blood and tissues after IV dosing; parameters: species or system Macaca fascicularis
[2] = molecular target: T1, RIPK1 (Receptor-interacting serine/threonine-protein kinase 1) (Homo sapiens, UniProt Q13546); experiment: TEAR1 target engagement immunoassay (FREE-RIPK1/TOTAL-RIPK1) in HT29 cells; format: cell-based
T1 sequence (Q13546 1-671): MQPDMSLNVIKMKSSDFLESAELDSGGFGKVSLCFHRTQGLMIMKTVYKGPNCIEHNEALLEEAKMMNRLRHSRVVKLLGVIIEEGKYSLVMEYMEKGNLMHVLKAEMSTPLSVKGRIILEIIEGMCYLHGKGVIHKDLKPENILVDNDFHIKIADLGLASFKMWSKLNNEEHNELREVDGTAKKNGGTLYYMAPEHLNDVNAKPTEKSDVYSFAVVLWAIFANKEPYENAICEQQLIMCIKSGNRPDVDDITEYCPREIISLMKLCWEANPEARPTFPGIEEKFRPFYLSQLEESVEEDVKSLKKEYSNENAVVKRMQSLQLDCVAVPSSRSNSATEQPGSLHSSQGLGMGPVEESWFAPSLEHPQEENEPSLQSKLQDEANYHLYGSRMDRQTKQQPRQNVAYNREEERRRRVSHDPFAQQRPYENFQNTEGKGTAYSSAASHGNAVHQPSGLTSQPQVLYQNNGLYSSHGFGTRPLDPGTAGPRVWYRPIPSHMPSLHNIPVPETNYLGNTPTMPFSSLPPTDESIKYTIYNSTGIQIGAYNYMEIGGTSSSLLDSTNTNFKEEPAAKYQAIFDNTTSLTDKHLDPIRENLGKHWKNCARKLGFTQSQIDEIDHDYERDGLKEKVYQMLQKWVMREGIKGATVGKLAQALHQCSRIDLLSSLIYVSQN

IC50 [1]: 3.1 ng/mL
pIC50 [2]: 9.30
Substance: GSK3011253 [GSK'253]
